Experimental data taken from patent US8771953B2, “Evaluation of the potential risk of drug induced mood disturbance and suicide: use of a dedicated platform” (Biocortech, priority 2008, dated 2014).
Like-named read-outs stand apart in the source and are kept apart here.

Experiments:
[1] = tested on: ADAR2 mRNA; assay: Q-PCR of ADAR2 mRNA expression in SH-SY5Y cells; type: cell-based; settings: Homo sapiens, 10 micromolar, 24 hours, read-out: QPCR: RNA expresion (% of variation) ADAR2
Experimental: (§1) The SH-SY5Y Human neuroblastoma cell line was purchased from ECACC (EC94030304 from the European Collection of Cell Cultures (ECACC)). The cell line SH-SY5Y is a thrice-cloned neuroblastoma, originally from SK-N-SH and first reported in 1978. A neuroblast-like subclone of SK-N-SH, named SH-SY, was subcloned as SH-SY5, which was subcloned again as SH-SY5Y (Biedler J L et al. Cancer Res. 1978; 38:3751-7). Cells were cultured in high glucose D-MEM medium (Sigma, ref D6546) supplemented with 10% dialysed FCS (PAA, ref. A15-507, lot A50708-0050), 2 mM Glutamine (Sigma, G7513) and a 1× mix of Antibiotic-Antimycotic Stabilized (Sigma, ref. A5955) at 37° C. under a humidified atmosphere of 5% CO2. The day preceeding drug or hIFNα treatment, SH-SY5Y cells were plated in 6-well plates at a density of 10^6 cells/well. One 6-well plate was used per experimental condition (concentration or treatment duration). The day after plating, culture medium was removed and cells were incubated for 24 hours with a 10 μM solution of the compound to be tested molecules or a 1000 IU/ml solution of hIFNα (PBL biomedical laboratories). For hIFNα dose-response experiment cells were incubated with 1, 10, 100, and 1000 IU/ml of hIFNα solutions. For hIFNα time-course experiment cells were treated for 24, 48, or 72 hours with a 1000 IU/ml solution of hIFNα. After the different treatments, cells were directly lysed in RLT lysis buffer and total RNA purified according to manufacturer's protocol (Qiagen, RNeasy Plus mini kit, ref. 74134). Total RNA was then reverse transcribed with Thermoscript RT-PCR system Plus Taq (Invitrogen, 11146-032) and the resulting cDNA used for CE-SSCP and quantitative real-time PCR.
(§2) In order to quantify levels of 5-HT2CR, ADAR1 and ADAR2 mRNA expression in SH-SY5Y cells or in prefrontal cortex, total blood and skin of Balb/cJ mice, first-strand cDNA was synthesized by reverse transcription and subjected to TaqMan quantitative real-time PCR analysis (Applied Biosystems). All probes and primers used for the quantitative PCRs were from Applied Bio systems (Gene Expression Assays, Assay-On-Demand) (see Table 1, Applied Biosystems primers and probes references): […]
(§3) Human GAPDH (product no. 4326317E; Applied Biosystems) or mouse GAPDH (product no. 4352339E; Applied Biosystems) were included in each multiplex PCR as an internal control. Real-time PCR and subsequent analysis were performed with a 48-well block StepOne RT PCR system (Applied Biosystems). Quantification of target gene expression in all samples was normalized to GAPDH expression by the equation Ct (target)−Ct (GAPDH)=ΔCt, where Ct is the threshold cycle number. The mean ΔCt value of samples from untreated mice or cells was determined and used as a reference point for the samples corresponding to treated animals or cells. Differences between untreated and treated animals or cells, including individual variation were calculated by the equation (ΔCt (individual treated samples)−ΔCt (mean of untreated samples)=ΔΔCt). Changes in target gene expression (n-fold) in each sample were calculated by 2^−ΔΔCt, from which the means and standard deviations (SD) were derived.
(§4) The SH-SY5Y Human neuroblastoma cell line was purchased from ECACC. Cells were cultured in high glucose D-MEM medium (Sigma, ref. D6546) supplemented with 10% dialysed FCS (PAA, ref. A15-507, lot A50708-0050), 2 mM Glutamine (Sigma, ref. G7513) and a 1× mix of Antibiotic-Antimycotic Stabilized (Sigma, ref. A5955) at 37° C. under a humidified atmosphere of 5% CO2. The day preceeding hIFNα or drug treatment, SH-SY5Y cells were plated in 6-well plates (Corning, Multiwell Plate, 6 well, Corning CellBIND Surface, ref 3335) at a density of 5; 7 or 9·10^6 cells/well for a 72-, 48- or 24-hour treatment respectively. Six or eight wells of 6-well plates were used per experimental condition (control, concentration or treatment duration).

[2] = tested on: 5-HT2cR mRNA; assay: Editing profile of 5-HT2cR mRNA isoforms by CE-SSCP (nested PCR) in SH-SY5Y cells; enzyme activity indexes worked out from the profile; type: cell-based, human; settings: Homo sapiens, SH-SY5Y
[3] = tested on: ADAR1a mRNA; assay: Q-PCR of ADAR1a mRNA expression in SH-SY5Y cells; type: cell-based; settings: Homo sapiens, 10 micromolar, 24 hours, read-out: QPCR: RNA expresion (% of variation) ADAR1a
Description: ADAR1a RNA Expression in SH-SY5Y cells (Q-PCR, Applied TaqMan probes ref: Hs 01020780_m1).
as §1, §2, §3, §4

[4] = tested on: ADAR1b mRNA; assay: Q-PCR of ADAR1b mRNA expression in SH-SY5Y cells; type: cell-based; settings: Homo sapiens, 10 micromolar, 24 hours, read-out: QPCR: RNA expresion (% of variation) ADAR1b
Experimental: as §1, §2, §3, §4

[5] = 24 h, read-out: ENZYME ACTIVIY INDEX (% of variation) ADAR1
[6] = 24 h, read-out: ENZYME ACTIVIY INDEX (% of variation) ADAR1 + 2
[7] = 24 h, read-out: ENZYME ACTIVIY INDEX (% of variation) ADAR2
[8] = 24 h, read-out: ENZYME ACTIVIY INDEX (% of variation) ADARI
[9] = 24 h, read-out: ENZYME ACTIVIY INDEX (% of variation) ADARII
[10] = 24 h, read-out: ENZYME ACTIVIY INDEX (% of variation) NE
[11] = 10 micromolar, 24 hours, read-out: ENZYME ACTIVIY INDEX (% of variation) ADAR1
[12] = 10 micromolar, 24 hours, read-out: ENZYME ACTIVIY INDEX (% of variation) ADAR1 + 2
[13] = 10 micromolar, 24 hours, read-out: ENZYME ACTIVIY INDEX (% of variation) ADAR2
[14] = 10 micromolar, 24 hours, read-out: ENZYME ACTIVIY INDEX (% of variation) ADARI
[15] = 10 micromolar, 24 hours, read-out: ENZYME ACTIVIY INDEX (% of variation) ADARII
[16] = 10 micromolar, 24 hours, read-out: ENZYME ACTIVIY INDEX (% of variation) NE

Row | SMILES | percent change in ADAR2 mRNA expression at 10 µM [1] [%] | activation at 10 µM [2, 5] [%] | activation at 10 µM [2, 6] [%] | activation at 10 µM [2, 7] [%] | activation at 10 µM [2, 8] [%] | activation at 10 µM [2, 9] [%] | activation at 10 µM [2, 10] [%] | % change in ADAR1a mRNA expression at 10 µM [3] [%] | percent change in mRNA expression at 10 µM [4] [%] | activation at 10 µM [2, 11] [%] | activation at 10 µM [2, 12] [%] | activation at 10 µM [2, 13] [%] | activation at 10 µM [2, 14] [%] | activation at 10 µM [2, 15] [%] | activation at 10 µM [2, 16] [%]
1 | CC(C)C[C@H](CN)CC(=O)O [Pregabalin] | -36 | 2.5 | -8.7 | -6.2 | 0.4 | -8.2 | -0.1 | -33 | -43 |  |  |  |  |  | 
2 | CCNC(C)Cc1cccc(C(F)(F)F)c1 (stereo not drawn) [Fenfluramine] | 27 | 4.2 | -43.3 | 0.7 | -4.8 | -34.8 | 4.5 | 7 | 23 |  |  |  |  |  | 
3 | CN(C)CCCC1(c2ccc(F)cc2)OCc2cc(C#N)ccc21 (stereo not drawn) [Citalopram] | 64 |  |  |  |  |  |  | -18 | -2 | -5.7 | 70.2 | 70.1 | 5.3 | 70.2 | -7.4
4 | NC(=O)OCC(COC(N)=O)c1ccccc1 [Felbamate] | 1 |  |  |  |  |  |  | -13 | -1 | 6.3 | -13.9 | -24.6 | 2.4 | -16 | -1.2
5 | CC[C@@H](C(N)=O)N1CCCC1=O [Levetiracetam] | -17 |  |  |  |  |  |  | -9 | -11 | 12 | -36.6 | 10.9 | 2.8 | -27.4 | -3.1
6 | Cc1cc2c(s1)Nc1ccccc1N=C2N1CCN(C)CC1 [Olanzapine] | 92 | -23.2 | 84.9 | 9.2 | -7.6 | 70.5 | 7 | -54 | 20 |  |  |  |  |  | 
7 | NC(=O)N1c2ccccc2C=Cc2ccccc21 [Carbamazepine] | -42 |  |  |  |  |  |  | 52 | -62 | -3 | 38.8 | 26 | 3 | 36.4 | -3.8
